{"source": "patent US7667040B2", "about": "“Azacyclic ethynyl derivatives” (Neurosearch A/S, priority 2002, dated 2010)", "key": {"[1]": {"biological_target": "T1, serotonin transporter (Rattus norvegicus, UniProt P31652)", "T1 construct": "Cerebral cortices from male Wistar rats (150-200 g) are homogenized; from tissue; host or cells: rat cerebral cortex synaptosomes (P2 pellet)", "T1 sequence (P31652 whole entry)": "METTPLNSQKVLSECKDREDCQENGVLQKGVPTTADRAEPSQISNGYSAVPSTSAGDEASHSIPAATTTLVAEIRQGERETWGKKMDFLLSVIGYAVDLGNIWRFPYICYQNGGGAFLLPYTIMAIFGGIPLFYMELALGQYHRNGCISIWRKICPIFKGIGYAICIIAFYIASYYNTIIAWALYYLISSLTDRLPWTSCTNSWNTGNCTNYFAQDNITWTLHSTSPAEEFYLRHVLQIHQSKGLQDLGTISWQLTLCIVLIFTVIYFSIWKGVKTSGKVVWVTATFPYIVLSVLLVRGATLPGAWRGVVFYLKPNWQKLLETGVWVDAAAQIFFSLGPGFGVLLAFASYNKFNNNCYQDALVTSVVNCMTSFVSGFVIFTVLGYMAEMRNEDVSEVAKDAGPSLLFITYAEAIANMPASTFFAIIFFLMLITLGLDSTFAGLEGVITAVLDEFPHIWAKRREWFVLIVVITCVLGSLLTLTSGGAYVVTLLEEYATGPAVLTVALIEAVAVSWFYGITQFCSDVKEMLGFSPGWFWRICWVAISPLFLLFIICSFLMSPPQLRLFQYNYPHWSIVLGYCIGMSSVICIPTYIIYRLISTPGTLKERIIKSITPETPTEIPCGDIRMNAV", "experiment": "In vitro inhibition of 3H-5-hydroxytryptamine uptake in cortical synaptosomes", "type": "biochemical", "conditions": "1 nM 3H-5-HT, 30 minutes at 37° C.", "method": "In vitro Inhibition of ^3H-5-Hydroxytryptamine Uptake in Cortical Synaptosomes\nSerotonin transporters/uptake sites on nerve terminals presumably function to terminate neuronal signaling by removing serotonin from the synaptic cleft. The activity of the serotonin transporter integral protein can be measured in vitro by synaptosomal uptake of ^3H-5-hydroxytryptamine (5-HT, serotonin).\nPreparations are performed at 0-4° C. Cerebral cortices from male Wistar rats (150-200 g) are homogenized for 5-10 seconds in 100 volumes of ice-cold 0.32 M sucrose containing 1 mM pargyline, using a motor driven teflon pestle in a glass homogenizing vessel. Monoamine oxidase activity is inhibited in the presence of pargyline.\nThe homogenate is subjected to centrifugation at 1000×g for 10 minutes. The resulting supernatant is then centrifuged at 27,000×g for 50 minutes and the supernatant is discarded. The pellet (P2) is re-suspended in oxygenated (equilibrated with an atmosphere of 96% O2: 4% CO2 for at least 30 minutes) Krebs-Ringer incubation buffer (1000 ml per g of original tissue) at pH 7.2 containing 122 mM NaCl, 0.16 mM EDTA, 4.8 mM KCl, 12.7 mM Na2HPO4, 3.0 mM NaH2PO4, 1.2 mM MgSO4, 1 mM CaCl2, 10 mM glucose and 1 mM ascorbic acid.\nAliquots of 4.0 ml tissue suspension are added to 100 μl, of test solution and 100 μl of ^3H-5-HT (1 nM, final concentration), mixed and incubated for 30 minutes at 37° C. Non-specific uptake is determined using Citalopram (1 μM, final concentration, available from Lundbeck, Denmark).\nAfter incubation, the samples are poured directly onto Whatman GF/C glass fibre filters under suction. The filters are washed three times with 5 ml of ice-cold 0.9% (w/v) NaCl solution.\nThe amount of radioactivity on the filters is determined by conventional liquid scintillation counting. Specific uptake is calculated as the difference between total uptake and non-specific uptake.\n25-75% inhibition of specific binding must be obtained, before calculation of an IC50.\nThe test value is given as IC50 (the concentration (μM) of the test substance which inhibits the specific binding of ^3H-5-HT by 50%)."}, "[2]": {"biological_target": "T2, α7-subtype of nicotinic receptors (Rattus norvegicus, UniProt Q05941)", "T2 construct": "Cerebral cortices from male Wistar rats (150-250 g) are homogenised; from tissue; host or cells: rat cerebral cortex membrane homogenate", "T2 sequence (Q05941 23-502)": "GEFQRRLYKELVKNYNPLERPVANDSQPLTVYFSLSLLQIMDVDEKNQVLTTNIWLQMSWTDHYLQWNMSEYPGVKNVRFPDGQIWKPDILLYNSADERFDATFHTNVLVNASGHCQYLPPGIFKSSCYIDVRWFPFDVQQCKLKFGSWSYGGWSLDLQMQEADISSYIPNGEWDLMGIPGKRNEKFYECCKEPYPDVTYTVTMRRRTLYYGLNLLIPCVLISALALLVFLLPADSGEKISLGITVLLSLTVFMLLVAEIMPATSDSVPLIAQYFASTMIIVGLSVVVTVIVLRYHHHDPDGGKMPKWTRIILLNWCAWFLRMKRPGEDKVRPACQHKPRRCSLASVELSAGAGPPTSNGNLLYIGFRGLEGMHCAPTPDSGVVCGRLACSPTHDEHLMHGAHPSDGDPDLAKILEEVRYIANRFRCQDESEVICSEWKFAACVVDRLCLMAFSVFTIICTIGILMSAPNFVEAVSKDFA", "experiment": "In vitro inhibition of 3H-α-bungarotoxine binding in rat brain"}, "[3]": {"conditions": "rat cerebral cortex homogenate, 2 nM 3H-α-bungarotoxine, 2 hours at 37° C., read-out: Inhibition of 3H-α-Bungarotoxine Binding IC50"}}, "note": "Structures can show the parent of a compound that is named as a salt. Where two headings read alike, the source gives them in different places."}
{"smiles": "CN1C2C=C(C#Cc3ccccc3)CC1CC2", "note": "(racemic) [Compound 1, (±)-8-Methyl-3-phenyletynyl-8-azabicyclo[3.2.1]oct-2-ene fumaric acid salt]", "values": [{"measurement": "IC50", "setting": "[1]", "result": 110, "unit": "nM"}, {"measurement": "IC50", "setting": "[2]", "result": 320, "unit": "nM"}]}
{"smiles": "C[N+]1(C)C2C=C(C#Cc3ccccc3)CC1CC2", "note": "(racemic) [Compound B1, (±)-8,8-Dimethyl-3-phenyletynyl-8-azabicyclo[3.2.1]oct-2-ene iodide salt]", "values": [{"measurement": "IC50", "setting": "[2]; [3]", "result": 2, "unit": "nM"}]}
{"smiles": "C[N+]12C=C(C#Cc3ccccc3)C(CC1)CC2", "note": "(racemic) [Compound B2, (±)-1-Methyl-3-phenyletynyl-quinuclidin-2-ene iodide salt]", "values": [{"measurement": "IC50", "setting": "[1]", "result": 100, "unit": "nM"}, {"measurement": "IC50", "setting": "[2]; [3]", "result": 600, "unit": "nM"}]}
{"smiles": "C(#Cc1ccccc1)C1=CC2CCC(C1)N2", "note": "(racemic) [Compound C1, (±)-8-H-3-Phenyletynyl-8-azabicyclo[3.2.1]oct-2-ene fumaric acid salt]", "values": [{"measurement": "IC50", "setting": "[1]", "result": 99, "unit": "nM"}]}
{"smiles": "C(#Cc1ccccc1)C1=CN2CCC1CC2", "note": "[Compound A1, (±)-3-Phenyletynyl-quinuclidin-2-ene]", "values": [{"measurement": "IC50", "setting": "[1]", "result": 420, "unit": "nM"}, {"measurement": "IC50", "setting": "[2]; [3]", "result": 180, "unit": "nM"}]}
